Test results from article PMC8177068, “Secondary (iso)BAs cooperate with endogenous ligands to activate FXR under physiological and pathological conditions” (Biochimica et biophysica acta. Molecular basis of disease, 2021).

How the values were obtained:
[1] = test system: FXR target genes (Ostb, Kng1); assay: FXR target gene mRNA/pre-mRNA expression in HepG2 cells (qRT-PCR); type: cell-based, human; conditions: 6 h
Method: (§1) RNA was extracted from cells or snap-frozen tissue samples (approximately 50 mg) using Trizol according to the manufacturer’s instructions and as described previously in detail. Liver samples were homogenized before extraction in a MagNA Lyser at 6500 rpm for 2 × 20 s intervals. Concentration and quality (absorbance 260/280 & […] ratios) of RNA was measured on a NanoDrop™ 2000 spectrophotometer. Isolated RNA was reverse-transcribed by using the SuperScript II cDNA synthesis enzyme according to the manufacturer’s instructions. Primers used for RT-qPCR were designed using the open-source program Primer3. Primers were designed to span exon-intron boundaries with an amplicon size of less than 150 bp. Relative changes were calculated using a standard curve and 36b4 as the reference genes.
Fig. 1.

[2] = biological target: T1, FXR ligand binding domain (NucleoBAS) (Homo sapiens, UniProt Q96RI1); assay: Confocal FRET bile acid sensor (NucleoBAS) in U2OS cells; type: cell-based; conditions: NTCP-NucleoBAS cells in CFBS
T1 construct: nuclear localisation (sensor targeted to the nucleus; signal not described); expressed in transfected cells; host or cells: U2OS cells stably expressing NucleoBAS (PEI transfection, colony selection); some experiments with co-expressed NTCP-mKate2
T1 sequence (Q96RI1 262-486 limits assumed): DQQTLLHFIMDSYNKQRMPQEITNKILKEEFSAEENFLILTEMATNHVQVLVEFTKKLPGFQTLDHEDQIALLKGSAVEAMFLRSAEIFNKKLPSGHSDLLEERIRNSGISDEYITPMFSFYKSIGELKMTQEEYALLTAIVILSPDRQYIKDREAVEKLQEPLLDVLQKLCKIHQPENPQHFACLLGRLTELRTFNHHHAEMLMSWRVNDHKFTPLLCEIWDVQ
From the text: Fig. 3.
Fig. 4. […] Error bars represent the SEM.
(§2) (1 picture or pasted object on this page, not shown here)

[3] = Metabolism of isoBAs in HepG2 cells (LC-MS); type: in vitro ADME, human; conditions: 4 h
Method: The protocol has been published in detail previously. Briefly, internal standards were added to cells in 12-well plates and cells were lysed in methanol. The debris was pelleted, the supernatant dried and dissolved in running buffer. BAs were separated by HPLC using a C18 reversed phase or pentafluorophenyl column prior to quantification by mass spectrometry.
Having established suitable analytical methods, we focused on the metabolism of isoBAs and their 3-alpha-epimers in vitro, using conditions similar to our cell-based FXR assays. […] This may indicate that the presence of the 12-hydroxy group prevents further metabolism into 3α-BAs. It was also observed that a very small amount of 3α-OH BAs were converted to 3-keto intermediates (Fig. 2B, C).
Fig. 2. IsoBAs are metabolized into (3-keto/oxo) derivatives and are partially re-epimerized into 3-alpha hydroxy BAs. HepG2 cells were incubated with (A) isoBAs or (B) their 3-alpha-epimers for 4 h. BAs were measured on C-18 column by LC/MS. Upper panel BAs and isoBAs; lower panel keto/oxo derivatives after incubation. Chromatograms of isoBA-standards are shown in Supplementary Fig. 3A. (C) Merged chromatograms of (A) & (B). […] (*) conversion of isoBAs into 3-alpha hydroxy BAs. (m/z) mass divided by charge number.

[4] = test system: intestinal Fgf15; assay: BA-enriched diet in mice: intestinal FXR target gene expression; type: in vivo, mouse; conditions: C57BL/6 J mice, 0.5% (w/w) chow diet
Method: as §1
Fig. 6.

[5] = test system: hepatic Cyp7a1; assay: BA-enriched diet in mice: hepatic BA synthesis gene expression; type: in vivo, mouse; conditions: for Cyp7a1 levels in the liver: C57BL/6 J mice, 0.5% (w/w) chow diet
Method: as §1
(§3) All animals were housed with a 12-h light-dark cycle in humidity and temperature-controlled conditions and permitted ad libitum consumption of water and a standard mouse diet (Altromin 1324, Lage, Germany). All the experiments were approved by the European Directive 2010/63/EU and approved by the Austrian Federal Ministry of Education, Science and Research (Vienna, Austria; BMWFW-66.010/0124-V/3b/2018, BMWFW-66.010/0129-WF/V/3b/2016, and the Institutional Animal Care and Use Committees at Emory University and were in conformity with the Austrian/US animal law. The Ostα^−/−, Asbt^−/−, Ostα-Asbt DKO (double knockout) and Fxr^−/−mice were generated as previously described. Experiments were performed in 8–12 weeks-old mice. Mice were fed a chow diet (Altromin 1324, Lage, Germany); for BA supplementation experiments, male mice were fed 0.5% (w/w) diet of the indicated BA for the indicated time. CBDL was performed as described previously. Mice were euthanized by decapitation and tissues including liver and intestine were immediately dissected, weighed and frozen in liquid nitrogen for subsequent molecular analysis or preserved for histological analysis.
Fig. 6. Regulation of FXR target genes in vivo after treatment with unconjugated and conjugated bile acids.
Fig. 7.

[6] = test system: Bsep; assay: Hepatic Bsep pre-mRNA and mRNA in animals treated with GSK2324; type: in vivo; conditions: animals treated with GSK2324, liver
Method: Supplementary Figure 2. (A) Hepatic expression of bile acid transport (Bsep) and BA-synthesis gene (Cyp7a1) pre-mRNA and mRNA after treatment with either vehicle or the synthetic FXR agonist GSK2324 for 30 minutes (n = 7-8), 1 hour (n = 8), or 2 hours (n = 7-8) before sacrifice; values represent the mean ± SEM. *p<0.05, #p<0.01. Effect of the synthetic FXR ligand (GW4064) and isoBAs (isoCDCA, isoDCA, isoUDCA) on mRNA (B) and pre-mRNA (C) levels of Ostb, Kng1, Shp in HepG2 cells treated over time; n=3. Values represent the mean ± SEM.
as §2

[7] = test system: human ASBT; design: method as in PMID 24328955; conditions: cited from earlier work
[8] = test system: FXR target genes; assay: Single dose gavage of (iso)BAs followed by GW4064 in mice, FXR target genes; type: in vivo, mouse; conditions: 60 mg/kg BW followed by GW4064 30 mg/kg BW, 6 h
From the text: as §3
Fig. 5. […] Genes were analyzed 6 h after gavage; n = 3–4, values represent the mean ± SEM. *p < 0.05; #p < 0.01.
Supplementary Figure 5. […]
Genes were analyzed 6 hours after gavage; n=3-4, values […]

[9] = design: method as in PMID 9126801, PMID 11352980; conditions: pilot studies; cited from earlier work

C[C@H](CCC(=O)O)[C@H]1CC[C@H]2[C@@H]3CC[C@@H]4C[C@@H](O)CC[C@]4(C)[C@H]3C[C@H](O)[C@]12C [isoDCA, (5β, 3β, 12α) -dihydroxy-cholan-24-oic acid]
induction of Ostβ and Kng1 mRNA [1]: barely induced
induction of Ostβ and Kng1 pre-mRNAs [1]: robustly induced
change in FRET signal induced by GCDCA ([2]; 100 μM isoBA at t = 240 s after 10 μM GCDCA): reduced the FRET signal
re-epimerization (conversion) into the 3α-stereoisomer [3]: did not observe re-epimerization

C[C@H](CCC(=O)O)[C@H]1CC[C@H]2[C@@H]3[C@H](O)C[C@@H]4C[C@H](O)CC[C@]4(C)[C@H]3C[C@H](O)[C@]12C [CA, cholic acid]
induction of Ostβ and Kng1 pre-mRNAs [1]: not
Fgf15 and Ibabp expression in the intestine [4]: increased
Cyp7a1 levels in the liver [5]: repressed

CC(C)c1onc(-c2c(Cl)cccc2Cl)c1COc1ccc(-c2ccc3nc(C(=O)O)ccc3c2)cc1 [GSK2324]
Bsep pre-mRNA induction over the mature Bsep mRNA [6]: ~ 20 fold

C[C@H](CCC(=O)O)[C@H]1CC[C@H]2[C@@H]3[C@H](O)C[C@@H]4C[C@@H](O)CC[C@]4(C)[C@H]3C[C@H](O)[C@]12C [isoCA]
induction of Ostβ and Kng1 pre-mRNAs [1]: not
re-epimerization (conversion) into the 3α-stereoisomer [3]: did not observe re-epimerization

C[C@H](CCC(=O)O)[C@H]1CC[C@H]2[C@@H]3[C@H](O)C[C@@H]4C[C@@H](O)CC[C@]4(C)[C@H]3CC[C@]12C [isoCDCA]
induction of Ostβ and Kng1 mRNA [1]: significant induction
induction of Ostβ and Kng1 pre-mRNAs [1]: robustly induced
re-epimerization (conversion) into the 3α-stereoisomer [3]: observed

C[C@H](CCC(=O)O)[C@H]1CC[C@H]2[C@@H]3CC[C@@H]4C[C@@H](O)CC[C@]4(C)[C@H]3CC[C@]12C [isoLCA]
induction of Ostβ and Kng1 pre-mRNAs [1]: not

CC(CCC(=O)NCC(=O)O)C1CCC2C3C(O)CC4CC(O)CCC4(C)C3CCC12C (centres unmarked) [GCDCA, glycochenodeoxycholic acid, reference compound]
change in FRET ([2]; 10 μM GCDCA): markedly increased FRET

C[C@H](CCC(=O)NCCS(=O)(=O)O)[C@H]1CC[C@H]2[C@@H]3[C@@H](O)C[C@@H]4C[C@H](O)CC[C@]4(C)[C@H]3CC[C@]12C [TUDCA, tauroursodeoxycholic]
expression of pre-mRNA over mRNA as compared to CA and TCA [4]: more strongly enhanced

C[C@H](CCC(=O)O)[C@H]1CC[C@H]2[C@@H]3[C@@H](O)C[C@@H]4C[C@H](O)CC[C@]4(C)[C@H]3CC[C@]12C [UDCA, ursodeoxycholic acid]
Cyp7a1 levels in the liver [5]: repressed
effect on liver Cyp7a1 mRNA expression ([5]; CBDL mice, 0.5% (w/w) diet 7 days): inhibited
repression of Cyp7a1 mRNA levels ([5]; CBDL-Fxr KO mice): not
repression of Cyp7a1 mRNA levels ([5]; CBDL-WT mice): repress
affinity for human ASBT compared to native BAs [7]: identical binding affinities

C[C@H](CCC(=O)O)[C@H]1CC[C@H]2[C@@H]3CC[C@@H]4C[C@H](O)CC[C@]4(C)[C@H]3CC[C@]12C [LCA, lithocholic acid, reference compound]
induction of Ostβ and Kng1 pre-mRNAs [1]: not

C[C@H](CCC(=O)O)[C@H]1CC[C@H]2[C@@H]3CC[C@@H]4C[C@H](O)CC[C@]4(C)[C@H]3C[C@H](O)[C@]12C [DCA, deoxycholic acid, reference compound]
induction of Ostβ and Kng1 pre-mRNAs [1]: robustly induced

C[C@H](CCC(=O)O)[C@H]1CC[C@H]2[C@@H]3[C@@H](O)C[C@@H]4C[C@@H](O)CC[C@]4(C)[C@H]3CC[C@]12C [isoUDCA]
induction of Ostβ and Kng1 mRNA [1]: barely induced
induction of Ostβ and Kng1 pre-mRNAs [1]: not
re-epimerization (conversion) into the 3α-stereoisomer [3]: observed
repression of Cyp7a1 in the liver compared to UDCA [8]: even better
affinity for human ASBT compared to native BAs [7]: identical binding affinities
tolerability [9]: well tolerated without any side effects
